# What was measured:
# [1] = target: T1, CYP4S24 (Musca domestica, UniProt T1PEC4); experiment: HPLC substrate depletion, P450/CPR Sf9 microsomes; assay type: biochemical; details: 0.2 µM P450, NADPH-regenerating system, 0.25 mM MgCl2, pH 7.4, 30 °C, 120 min
# T1 construct: full length, co-expressed with house fly CPR (MOI 10:1) by baculovirus in Sf9 cells; microsomes; with NADPH--cytochrome P450 reductase
# T1 sequence (T1PEC4 1-496): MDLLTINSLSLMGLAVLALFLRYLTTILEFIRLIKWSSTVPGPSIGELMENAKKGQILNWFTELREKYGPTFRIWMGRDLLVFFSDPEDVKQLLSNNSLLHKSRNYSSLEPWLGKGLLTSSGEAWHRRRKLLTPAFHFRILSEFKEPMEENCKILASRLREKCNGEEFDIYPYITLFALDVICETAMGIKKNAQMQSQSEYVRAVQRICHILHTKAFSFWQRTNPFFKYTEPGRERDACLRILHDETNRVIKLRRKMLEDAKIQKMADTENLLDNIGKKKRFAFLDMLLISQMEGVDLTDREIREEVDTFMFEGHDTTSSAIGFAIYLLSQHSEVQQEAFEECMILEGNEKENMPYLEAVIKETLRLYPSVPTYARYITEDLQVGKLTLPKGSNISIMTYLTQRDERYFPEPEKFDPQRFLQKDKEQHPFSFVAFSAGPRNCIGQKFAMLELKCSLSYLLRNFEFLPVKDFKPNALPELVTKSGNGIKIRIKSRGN
# T1 sequence (Q07994 1-671 partner): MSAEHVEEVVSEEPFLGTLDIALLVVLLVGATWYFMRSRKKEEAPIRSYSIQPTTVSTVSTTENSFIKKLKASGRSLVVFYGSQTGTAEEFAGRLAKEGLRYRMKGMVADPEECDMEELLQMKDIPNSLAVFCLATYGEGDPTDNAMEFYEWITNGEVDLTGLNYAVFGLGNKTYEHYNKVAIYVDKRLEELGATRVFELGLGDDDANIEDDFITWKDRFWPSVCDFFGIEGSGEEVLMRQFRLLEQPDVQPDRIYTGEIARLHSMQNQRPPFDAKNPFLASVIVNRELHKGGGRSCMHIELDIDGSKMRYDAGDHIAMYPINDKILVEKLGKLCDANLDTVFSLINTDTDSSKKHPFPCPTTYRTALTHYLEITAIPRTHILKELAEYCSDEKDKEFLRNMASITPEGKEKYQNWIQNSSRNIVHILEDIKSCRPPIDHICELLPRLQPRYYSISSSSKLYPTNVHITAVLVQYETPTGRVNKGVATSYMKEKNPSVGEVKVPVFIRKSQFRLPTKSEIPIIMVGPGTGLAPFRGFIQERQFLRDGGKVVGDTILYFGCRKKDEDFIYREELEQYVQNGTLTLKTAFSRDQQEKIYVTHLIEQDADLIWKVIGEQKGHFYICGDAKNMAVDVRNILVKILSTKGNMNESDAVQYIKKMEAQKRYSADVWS
# [2] = target: T2, CYP6A36 (Musca domestica, UniProt Q06S82); experiment: HPLC substrate depletion, P450/CPR Sf9 microsomes; assay type: biochemical; details: 20 µM cis/trans permethrin mixture, 0.2 µM P450, NADPH-regenerating system, 0.25 mM MgCl2, pH 7.4, 30 °C, 120 min
# T2 construct: full length, co-expressed with house fly CPR (MOI 10:1) by baculovirus in Sf9 cells; microsomes; with NADPH--cytochrome P450 reductase
# T2 sequence (Q06S82 1-507): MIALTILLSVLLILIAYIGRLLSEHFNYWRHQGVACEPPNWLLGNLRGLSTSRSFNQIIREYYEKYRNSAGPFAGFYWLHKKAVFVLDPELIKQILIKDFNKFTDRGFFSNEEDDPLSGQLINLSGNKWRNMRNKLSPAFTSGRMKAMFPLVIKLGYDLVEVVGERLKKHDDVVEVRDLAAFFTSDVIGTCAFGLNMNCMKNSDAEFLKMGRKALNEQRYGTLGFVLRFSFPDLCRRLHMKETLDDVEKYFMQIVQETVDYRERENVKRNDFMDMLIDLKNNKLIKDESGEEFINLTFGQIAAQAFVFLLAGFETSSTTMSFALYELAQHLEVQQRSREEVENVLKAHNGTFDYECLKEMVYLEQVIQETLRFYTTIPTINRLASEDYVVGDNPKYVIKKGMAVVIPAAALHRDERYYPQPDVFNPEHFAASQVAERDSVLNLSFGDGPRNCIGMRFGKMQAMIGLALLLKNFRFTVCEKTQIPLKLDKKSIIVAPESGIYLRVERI
# T2 sequence (Q07994 1-671 partner): T1 sequence (Q07994 1-671 partner)
compound,measurement,setting,value
OCc1cccc(Oc2ccccc2)c1 [PBalc],"HPLC substrate depletion, P450/CPR Sf9 microsomes",[1]; 20 µM PBalc,CYP4S24 exhibiting the highest ability to metabolize both PBalc and PBald
O=Cc1cccc(Oc2ccccc2)c1 [PBald],"HPLC substrate depletion, P450/CPR Sf9 microsomes",[1]; 20 µM PBald,CYP4S24 exhibiting the highest ability to metabolize both PBalc and PBald
CC1(C)C(C=C(Cl)Cl)C1C(=O)OCc1cccc(Oc2ccccc2)c1 (stereo not drawn) [trans-permethrin],"HPLC substrate depletion, P450/CPR Sf9 microsomes",[2],CYP6A36 showed the highest activity toward both trans- and cis-permethrin

# Reference: PMC9959456, “Multiple-P450 Gene Co-Up-Regulation in the Development of Permethrin Resistance in the House Fly, Musca domestica” (International Journal of Molecular Sciences, 2023)
